In one test the target is T1, EGFR (Homo sapiens, UniProt P00533).
T1 construct: L858R/T790M in cis, heterozygous with wild type), Western blot
Put plainly: Western blot degradation of EGFR. The class given is cell-based. Particulars: H1975 Cell; 24 hours. The procedure:
Conventional Western blot assay was performed to evaluate the effects of the compounds of the present disclosure on the expression of target proteins in cells.
(1) Cell Seeding and Protein Harvesting: The selected cells were processed according to the cell seeding procedure and protein harvesting procedure in Table II-2.
(2) To the collected supernatant, 5×SDS sample loading buffer was added, followed by denaturation at 95 °C for 5 minutes. The denatured samples were then separated by SDS-PAGE electrophoresis on a polyacrylamide gel. Proteins were transferred to a nitrocellulose membrane (0.45 μm NC membrane), blocked with blocking buffer at room temperature for 1 hour, and subjected to antibody incubation and development procedures according to the antibody manufacturer's instructions (Cell Signaling Technology).
Half-Maximal Degradation Concentration value (the drug concentration required for degrading proteins by 50%, abbreviated as DC50) reads method: comparing the grayscale values of Western blot bands from drug-treated samples with those from blank DMSO-treated controls, and identifying the drug concentration range at which the grayscale value is half that of the DMSO-treated control bands.
DC50 values can be calculated using ImageJ software to measure grayscale values of Western blot bands from drug-treated samples. The concentration-response curve is fitted to estimate the drug concentration corresponding to half the grayscale value.
Target protein remaining (%) refers to the percentage of target protein remaining in cells after treatment with protein degrader compounds.
Calculation method for target protein remaining (%): Use ImageJ software to measure grayscale values of Western blot bands from drug (protein degrader)-treated samples. The grayscale value of drug-treated bands is divided by that of internal control protein bands, and the resulting quotient is normalized to obtain the relative percentage of remaining target protein after protein degrader treatment.
Target protein degradation rate (%)=1−target protein remaining (%).

Test [1] has as its system Human myeloid monocytic leukemia cell line (MV-4-11). The test is described as follows: Inhibition of MV-4-11 cell proliferation (CellTiter luminescent viability). The test is classed as cell-based. Particulars: Table IE1, CDK4/6 inhibitor-based; MV-4-11, 96 hours; read-out: Inhibitory activity (IC50, nM) on tumor cell proliferation, MV-4-11. The method, boiled down: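 Cells are seeded in 96-well plates, cultured at 37 °C, 5% CO2, and treated next day with 5-fold serial compound dilutions (stock series from 2000 μM; 0.5 μL into 100 μL medium). Viability is read by CellTiter-Meiluncell luminescence after the set exposure, and IC50 is taken from growth-inhibition curves.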

The target in test [2] is T2, human Cereblon WT GST-tagged protein (CRBN) (Homo sapiens, UniProt Q96SW2).
T2 construct: purchased CISBIO 64BDCRBNPEH
The test is described as follows: CRBN binding by HTRF (Cereblon binding kit). The method, boiled down:
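GST-tagged human Cereblon WT was incubated 3 h at room temperature with compound, thalidomide-Re tracer and Eu anti-GST antibody. Final compound concentrations were 10 to 0.00064 µM (7 points) or 2 and 0.5 µM. Inhibition rate was calculated from HTRF 665/620 nm ratios versus solvent and blank controls.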

The target of a further test is T3, CDK6 (Homo sapiens, UniProt Q00534+Q96SW2).
T3 construct: expression of target proteins in cells; endogenous in cells
Put plainly: Western blot degradation of CDK6. The test is classed as cell-based. The following applies: MDA-MB-231 Cell; 24 hours. The method, boiled down: (§1)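 Cells treated with compound, lysed, and target protein detected by Western blot (SDS-PAGE, nitrocellulose transfer). DC50 taken as the concentration giving band grayscale half that of DMSO control, estimated by concentration-response fitting; remaining protein (%) from target band normalised to internal control band; degradation (%) = 1 − remaining.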

Test [3] relates to Human large cell immunoblastic lymphoma cell line SR. Put plainly: Inhibition of SR cell proliferation (CellTiter luminescent viability). The class given is cell-based. The following applies: Table IE1, CDK4/6 inhibitor-based, 96 hours, read-out: Inhibitory activity (IC50, nM) on tumor cell proliferation, SR. Here is the method: (§2) The tumor cells used herein were cultured in a cell culture medium listed in table 3 at 37 °C in an incubator with 5% CO2. Prior to experimentation, all cell lines used were correctly identified by STR profiling, and tested negative for mycoplasma contamination using a mycoplasma detection kit through routine screenings.
(§3) The IC50 values of the compounds of the present disclosure (including the compounds in Table 1, Table 2, and Examples 1-468) were determined using the CellTiter-Meiluncell Luminescent Cell Viability Assay Kit from Dalian Meilun Biotech Co., Ltd. The detailed procedure is as follows: Tumor cells were seeded in 96-well cell culture plates at the densities specified in Table 4. On the following day, the test compounds of the present disclosure were subjected to serial dilution. The dilution can be performed according to one of the following two methods: • (1) The first dilution method: The test compounds of the present disclosure (including the compounds in Table 1, Table 2, and Examples 1-468) were subjected to 5-fold serial dilutions starting from a highest concentration of 2000 μM, resulting in a total of 9 concentrations from high to low (2000, 400, 80, 16, 3.2, 0.64, 0.128, 0.0256, 0.00512 μM). Subsequently, 0.5 μL of the test compound dilution was transferred into the 96-well plate containing the cells, with each well containing 100 μL of cell culture medium. […] Into the 96-well plate, the diluted test compounds and corresponding detection reagents were added, resulting in final test compound concentrations of 500 nM and 10 nM, respectively. The experimental procedure is described below using the diluted 2 μM test compound as an example.
(§4) 0.5 μL of the aforementioned diluted compound of the present disclosure (including the compounds in Table 1, Table 2, and Examples 1-468) was added to the seeded cells in 100 μL of medium, yielding a final test compound concentration of 10 nM. After the cells were treated with the compounds of the present disclosure for a specified period, the cell viability assay reagent was added to the culture medium according to the kit's instructions to determine cell viability. […] All controls were treated using the same procedure as the compounds of the present disclosure. The growth inhibition curves for the compounds of the present disclosure were plotted using Prism GraphPad software, and the IC50 values were calculated therefrom.

Another test deals with T4, CDK4 (Homo sapiens, UniProt P11802+Q96SW2).
T4 construct: expression of target proteins in cells; endogenous in cells
Put plainly: Western blot degradation of CDK4. The class given is cell-based. The following applies: MDA-MB-231 Cell; 24 hours. A digest of the protocol: as §1

In test [4] the test system is Human Acute T Lymphoblastic Leukemia Cells (Molt-4). Put plainly: Inhibition of Molt-4 cell proliferation (CellTiter luminescent viability). The class given is cell-based. The following applies: Table IE1, CDK4/6 inhibitor-based; Molt-4, 96 hours; read-out: Inhibitory activity (IC50, nM) on tumor cell proliferation, Molt-4.
Test [5] deals with Human acute lymphocytic leukemia T lymphocytes cell line (CCRF-CEM). Put plainly: Inhibition of CCRF-CEM cell proliferation (CellTiter luminescent viability). The test is classed as cell-based. The following applies: Table IE1, CDK4/6 inhibitor-based, 96 hours, read-out: Inhibitory activity (IC50, nM) on tumor cell proliferation, CCRF-CEM.
The subject of test [6] is Human neuroblastoma cell line (SK-N-AS). Put plainly: Inhibition of SK-N-AS cell proliferation (CellTiter luminescent viability). The class given is cell-based. Particulars: Table II2, EZH2 inhibitor-based, 96 hours; for inhibition at 0.01 µM: 10 nM, read-out: Inhibition Rate at 10 nM (%); for inhibition at 0.5 µM: 500 nM, read-out: Inhibition Rate at 500 nM (%). Here is the method:
as §2, §3, §4

Each structure is given as a SMILES string.

T1 sequence (P00533 25-1210): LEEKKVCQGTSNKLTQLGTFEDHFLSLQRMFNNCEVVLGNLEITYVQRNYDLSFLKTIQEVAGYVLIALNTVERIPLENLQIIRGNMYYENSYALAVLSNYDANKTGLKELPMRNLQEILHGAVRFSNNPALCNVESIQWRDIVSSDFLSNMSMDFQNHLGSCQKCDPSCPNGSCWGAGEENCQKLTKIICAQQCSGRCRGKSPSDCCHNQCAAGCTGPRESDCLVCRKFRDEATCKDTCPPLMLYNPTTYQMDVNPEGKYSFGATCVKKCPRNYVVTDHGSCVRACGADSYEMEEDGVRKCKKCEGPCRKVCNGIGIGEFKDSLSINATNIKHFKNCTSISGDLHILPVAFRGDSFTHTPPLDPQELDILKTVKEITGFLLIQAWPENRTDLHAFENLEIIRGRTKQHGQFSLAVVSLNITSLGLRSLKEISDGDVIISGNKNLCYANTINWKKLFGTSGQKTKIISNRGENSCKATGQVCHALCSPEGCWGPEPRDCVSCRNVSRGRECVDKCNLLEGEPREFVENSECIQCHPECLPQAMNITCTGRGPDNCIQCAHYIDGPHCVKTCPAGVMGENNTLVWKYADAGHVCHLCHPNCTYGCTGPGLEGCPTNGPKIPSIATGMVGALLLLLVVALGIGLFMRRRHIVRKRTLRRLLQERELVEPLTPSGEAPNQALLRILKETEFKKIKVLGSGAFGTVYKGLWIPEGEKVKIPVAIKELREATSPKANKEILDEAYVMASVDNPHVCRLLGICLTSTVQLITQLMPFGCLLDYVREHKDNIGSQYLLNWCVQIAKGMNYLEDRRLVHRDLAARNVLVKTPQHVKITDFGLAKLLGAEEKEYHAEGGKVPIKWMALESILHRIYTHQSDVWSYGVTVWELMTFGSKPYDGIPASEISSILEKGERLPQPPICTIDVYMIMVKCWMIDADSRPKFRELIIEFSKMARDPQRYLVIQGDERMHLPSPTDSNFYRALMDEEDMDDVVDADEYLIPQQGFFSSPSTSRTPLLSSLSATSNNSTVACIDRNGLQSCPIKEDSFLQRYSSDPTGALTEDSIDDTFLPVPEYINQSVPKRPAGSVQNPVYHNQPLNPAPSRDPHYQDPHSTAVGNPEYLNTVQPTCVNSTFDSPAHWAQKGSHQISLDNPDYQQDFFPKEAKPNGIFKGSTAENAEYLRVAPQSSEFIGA
T1 sequence (Q96SW2 whole entry partner): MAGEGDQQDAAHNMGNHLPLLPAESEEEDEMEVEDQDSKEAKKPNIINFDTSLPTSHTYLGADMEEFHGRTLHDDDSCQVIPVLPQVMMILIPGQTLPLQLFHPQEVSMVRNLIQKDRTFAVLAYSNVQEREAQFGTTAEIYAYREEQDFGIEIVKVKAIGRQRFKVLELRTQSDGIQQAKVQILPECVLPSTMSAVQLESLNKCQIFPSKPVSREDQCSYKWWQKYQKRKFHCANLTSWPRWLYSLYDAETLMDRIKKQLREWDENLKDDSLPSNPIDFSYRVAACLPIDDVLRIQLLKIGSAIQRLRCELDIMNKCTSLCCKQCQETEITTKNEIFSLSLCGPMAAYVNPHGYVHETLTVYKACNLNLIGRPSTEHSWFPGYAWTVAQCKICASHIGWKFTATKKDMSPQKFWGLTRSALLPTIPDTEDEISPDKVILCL
T4 sequence (P11802 whole entry): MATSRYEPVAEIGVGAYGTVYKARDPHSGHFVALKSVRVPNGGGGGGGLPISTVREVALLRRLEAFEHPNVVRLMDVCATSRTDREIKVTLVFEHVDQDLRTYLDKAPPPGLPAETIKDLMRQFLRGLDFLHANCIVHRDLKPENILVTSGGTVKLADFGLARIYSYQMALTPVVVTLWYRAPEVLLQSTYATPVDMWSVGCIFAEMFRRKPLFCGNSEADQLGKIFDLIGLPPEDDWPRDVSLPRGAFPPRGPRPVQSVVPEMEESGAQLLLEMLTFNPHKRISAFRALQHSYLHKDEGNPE
T4 sequence (Q96SW2 whole entry): as the sequence (Q96SW2 whole entry partner) above
T4 sequence (Q16531 whole entry partner): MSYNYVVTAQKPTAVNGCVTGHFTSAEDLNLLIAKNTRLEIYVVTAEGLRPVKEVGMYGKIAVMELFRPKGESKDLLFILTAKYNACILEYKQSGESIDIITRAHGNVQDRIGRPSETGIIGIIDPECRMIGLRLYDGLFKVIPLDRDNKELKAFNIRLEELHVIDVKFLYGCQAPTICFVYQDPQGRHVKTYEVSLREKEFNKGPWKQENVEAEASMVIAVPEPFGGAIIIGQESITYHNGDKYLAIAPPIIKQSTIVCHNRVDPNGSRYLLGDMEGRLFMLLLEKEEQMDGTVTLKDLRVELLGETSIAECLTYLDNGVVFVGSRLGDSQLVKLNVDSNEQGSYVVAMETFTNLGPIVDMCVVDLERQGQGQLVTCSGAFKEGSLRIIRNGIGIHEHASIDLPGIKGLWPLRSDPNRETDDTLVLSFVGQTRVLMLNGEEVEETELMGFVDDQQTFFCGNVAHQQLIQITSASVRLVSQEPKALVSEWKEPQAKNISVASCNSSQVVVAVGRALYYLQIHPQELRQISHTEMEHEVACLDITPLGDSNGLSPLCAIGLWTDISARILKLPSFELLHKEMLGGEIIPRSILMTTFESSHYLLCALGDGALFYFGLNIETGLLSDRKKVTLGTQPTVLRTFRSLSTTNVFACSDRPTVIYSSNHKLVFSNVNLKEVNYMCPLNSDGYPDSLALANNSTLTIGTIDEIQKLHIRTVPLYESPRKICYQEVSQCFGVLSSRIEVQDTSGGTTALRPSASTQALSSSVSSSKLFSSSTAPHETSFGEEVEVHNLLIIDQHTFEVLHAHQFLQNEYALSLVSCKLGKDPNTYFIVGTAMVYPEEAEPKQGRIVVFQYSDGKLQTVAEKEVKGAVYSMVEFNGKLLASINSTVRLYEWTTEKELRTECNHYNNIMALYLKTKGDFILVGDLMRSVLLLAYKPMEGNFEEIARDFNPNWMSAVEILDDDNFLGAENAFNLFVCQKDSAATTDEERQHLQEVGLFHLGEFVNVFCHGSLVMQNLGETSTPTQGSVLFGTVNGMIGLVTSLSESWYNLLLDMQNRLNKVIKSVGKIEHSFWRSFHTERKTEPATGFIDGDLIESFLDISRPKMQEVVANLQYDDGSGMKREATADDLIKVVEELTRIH
T3 sequence (Q00534 whole entry): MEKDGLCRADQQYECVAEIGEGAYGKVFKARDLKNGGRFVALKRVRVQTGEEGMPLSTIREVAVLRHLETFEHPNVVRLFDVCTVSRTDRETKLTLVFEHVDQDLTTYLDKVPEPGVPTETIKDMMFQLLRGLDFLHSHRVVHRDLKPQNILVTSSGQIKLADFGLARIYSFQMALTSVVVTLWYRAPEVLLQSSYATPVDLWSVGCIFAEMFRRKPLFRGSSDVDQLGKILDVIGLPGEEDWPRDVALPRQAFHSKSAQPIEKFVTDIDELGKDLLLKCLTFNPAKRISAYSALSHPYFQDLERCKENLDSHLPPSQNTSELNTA
T3 sequence (Q96SW2 whole entry): as the sequence (Q96SW2 whole entry partner) above
T3 sequence (Q16531 whole entry partner): as the sequence (Q16531 whole entry partner) above
T2 sequence (Q96SW2 whole entry): as the sequence (Q96SW2 whole entry partner) above

Take `O=C1CCN(N2Cc3cc(CN4CCN(c5ccc(Nc6ncc7nc(Nc8ccccc8)n(C8CCCC8)c7n6)cc5)CC4)ccc3C2=O)C(=O)N1` [GT-05836, 1-(5-((4-(4-((9-cyclopentyl-8-(phenylamino)-9H-purin-2-yl)amino)phenyl)piperazin-1-yl)methyl)-1-oxoisoindolin-2-yl)dihydropyrimidine-2,4 (1H,3H)-dione]: at EGFR, the “Degradation of substrate protein EGFR (substrate protein remaining %)” value is “A (0%≤substrate protein remaining %≤80%)”.

Consider `CN(CC1CCN(c2ccc3c(c2)C(=O)N(N2CCC(=O)NC2=O)C3=O)CC1)C1CCN(c2ccc(Nc3ncc4nc(Nc5ccccc5)n(C5CCCC5)c4n3)cc2)CC1` [GT-05843, 5-(4-(((1-(4-((9-cyclopentyl-8-(phenylamino)-9H-purin-2-yl)amino)phenyl)piperidin-4-yl)(methyl)amino)methyl)piperidin-1-yl)-2-(2,4-dioxotetrahydropyrimidin-1(2H)-yl)isoindoline-1,3-dione], for which the “Degradation of substrate protein EGFR (substrate protein remaining %)” value at EGFR is recorded as “A (0%≤substrate protein remaining %≤80%)”.

As for `O=C1CCN(N2Cc3cc(CN4CCN(C5CCN(c6ccc(Nc7ncc8nc(Nc9ccccc9)n(C9CCCC9)c8n7)cc6)CC5)CC4)ccc3C2=O)C(=O)N1` [GT-05914, 1-(5-((4-(1-(4-((9-cyclopentyl-8-(phenylamino)-9H-purin-2-yl)amino)phenyl)piperidin-4-yl)piperazin-1-yl)methyl)-1-oxoisoindolin-2-yl)dihydropyrimidine-2,4 (1H,3H)-dione], on EGFR, the “Degradation of substrate protein EGFR (substrate protein remaining %)” value is reported as “A (0%≤substrate protein remaining %≤80%)”.

In the case of `Cc1nc2c(F)cc(-c3nc(Nc4ccc(CN5CCN(CC6CCN(c7cccc8c7C(=O)N(N7CCC(=O)NC7=O)C8=O)CC6)CC5)cn4)ncc3F)cc2n1C(C)C` [GT-06663, 2-(2,4-dioxotetrahydropyrimidin-1(2H)-yl)-4-(4-((4-((6-((5-fluoro-4-(4-fluoro-1-isopropyl-2-methyl-1H-benzo[d]imidazol-6-yl)pyrimidin-2-yl)amino)pyridin-3-yl)methyl)piperazin-1-yl)methyl)piperidin-1-yl)isoindoline-1,3-dione], the IC50 fell in the range of 10 to 50 nM in [1] and 400 to 800 nM in [3]. Also, the “Inhibition Rate at 0.5 μM (%)” value in test [2] (0.5 μM) is recorded as “a2 (20% < a2 ≤ 30%)”. Besides, in test [2] (2 μM), the “Inhibition Rate at 2 μM (%)” value is “a5 (53% < a5 ≤ 60%)”. Moreover, the “Degradation of substrate protein CDK6 (substrate protein remaining %)” value at CDK6 is on record as “A (0%≤substrate protein remaining %≤80%)”. Also, the “Degradation of substrate protein CDK4 (substrate protein remaining %)” value on CDK4 is given as “B (80%<substrate protein remaining %≤100%)”.

Regarding `Cc1nc2c(F)cc(-c3nc(Nc4ccc(N5CCC(N(C)CC6CCN(c7cccc8c7C(=O)N(N7CCC(=O)NC7=O)C8=O)CC6)CC5)cn4)ncc3F)cc2n1C(C)C` [GT-06734, 2-(2,4-dioxotetrahydropyrimidin-1(2H)-yl)-4-(4-(((1-(6-((5-fluoro-4-(4-fluoro-1-isopropyl-2-methyl-1H-benzo[d]imidazol-6-yl)pyrimidin-2-yl)amino)pyridin-3-yl)piperidin-4-yl)(methyl)amino)methyl)piperidin-1-yl)isoindoline-1,3-dione], the IC50 lay within 50 to 100 nM in [1], 400 to 800 nM in test [4], 400 to 800 nM in test [5] and 100 to 300 nM in [3]. Also, the “Degradation of substrate protein CDK6 (substrate protein remaining %)” value on CDK6 was “A (0%≤substrate protein remaining %≤80%)”. Further, on CDK4, the “Degradation of substrate protein CDK4 (substrate protein remaining %)” value is “A (0%≤substrate protein remaining %≤80%)”.

Regarding `CCN(c1cc(-c2ccc(N3CCC(N(C)Cc4ccc5c(c4)CN(N4CCC(=O)NC4=O)C5=O)CC3)cc2)cc(C(=O)NCc2c(C)cc(C)[nH]c2=O)c1C)C1CCOCC1` [GT-08512, N-((4,6-dimethyl-2-oxo-1,2-dihydropyridin-3-yl)methyl)-4′-(4-(((2-(2,4-dioxotetrahydropyrimidin-1(2H)-yl)-1-oxoisoindolin-5-yl)methyl)(methyl)amino)piperidin-1-yl)-5-(ethyl(tetrahydro-2H-pyran-4-yl)amino)-4-methyl-[1,1′-biphenyl]-3-carboxamide], in [6], the inhibition at 0.01 µM fell in the range of 10 to 15% and the inhibition at 0.5 µM lay in the range of 20 to 30%.

Regarding `CCN(c1cc(-c2ccc(CN3CCN(CC4CCN(c5cccc6c5C(=O)N(N5CCC(=O)NC5=O)C6=O)CC4)CC3)cc2)cc(C(=O)NCc2c(C)cc(C)[nH]c2=O)c1C)C1CCOCC1` [GT-08519, N-((4,6-dimethyl-2-oxo-1,2-dihydropyridin-3-yl)methyl)-4′-((4-((1-(2-(2,4-dioxotetrahydropyrimidin-1(2H)-yl)-1,3-dioxoisoindolin-4-yl)piperidin-4-yl)methyl)piperazin-1-yl)methyl)-5-(ethyl(tetrahydro-2H-pyran-4-yl)amino)-4-methyl-[1,1′-biphenyl]-3-carboxamide], in test [6], the inhibition at 0.01 µM is 10 to 15% and the inhibition at 0.5 µM was in the range of 20 to 30%.

For the compound `CCN(c1cc(-c2ccc(N3CCN(CC4CCN(c5cccc6c5C(=O)N(N5CCC(=O)NC5=O)C6=O)CC4)CC3)cc2)cc(C(=O)NCc2c(C)cc(C)[nH]c2=O)c1C)C1CCOCC1` [GT-08521, N-((4,6-dimethyl-2-oxo-1,2-dihydropyridin-3-yl)methyl)-4′-(4-((1-(2-(2,4-dioxotetrahydropyrimidin-1(2H)-yl)-1,3-dioxoisoindolin-4-yl)piperidin-4-yl)methyl)piperazin-1-yl)-5-(ethyl(tetrahydro-2H-pyran-4-yl)amino)-4-methyl-[1,1′-biphenyl]-3-carboxamide], in [6], the inhibition at 0.01 µM was in the range of 20 to 30% and the inhibition at 0.5 µM was 30 to 40%.

With `CCCc1cc(C)[nH]c(=O)c1CNC(=O)c1cc(-c2ccc(N3CCN(C(C)C)CC3)nc2)cc2c1cnn2C(C)C` [UNC1999, reference compound], in test [6], the inhibition at 0.01 µM lay in the range of 0 to 5% and the inhibition at 0.5 µM lay within 0 to 5%.
